Patent US7375215B2, “Compounds for PDT” (Bioscience Technology Investment Holdings Limited, priority 2000, dated 2008)

How the values were obtained:
[1] = system: Colo26 mouse colorectal tumour cells; assay: Uptake by Colo26 tumour cells in culture; type: cell-based; conditions: 1.5 μM; for 6 hour uptake (millions of molecules per cell) / 24 hour uptake (millions of molecules per cell) / Rate of uptake 6-24 h (thousands of molecules per cell per hour): Colo26 cells
Description: Colo26 mouse colorectal tumour cells were grown in culture using standard methods. […] At the end of the set time period, the culture medium containing the added photosensitiser was removed and the cells washed with cold phosphate buffered saline. The cells were freed from the culture flask by treatment with trypsin solution. The viable cell count was determined using a standard haemocytometer and the photosensitiser extracted from the cells by treatment with methanol:DMSO (4:1, v:v). Cell extracts were frozen in liquid nitrogen and stored at −70° C. for later analysis. The photosensitiser content of the cell extract was determined by direct fluorescence using standard curves of photosensitiser and correcting for extraction efficiency from the cell suspension. […] (millions of molecules per cell, m against time t (hours)). […] The uptake of m-THPC is rapid, reaching a peak around 24 hours after which the photosensitiser content of the cells declines. […] However, the amount of photosensitiser taken up is greater. […] The mechanism of photosensitiser uptake by cells remains a subject of study. In the case of small hydrophobic sensitisers such as m-THPC, which are generally presented to cells bound to protein or lipoprotein in biological systems, a role for specific lipoprotein receptors has been implicated. […] One way in which uptake mechanisms may be studied is by determining the influence of temperature. In general, active (energy-dependent) uptake processes are inhibited in cells maintained at 4° C. compared to those at 37° C. Passive (energy-independent) uptake processes are much less temperature-dependent.

Solubility in water = type: physicochemical
[2] = Spectroscopic properties (absorbance, fluorescence); type: physicochemical; conditions: for Fluorescence in aqueous solution relative to ethanol: excited at 405 nm, indicates aggregation in water; for Molar extinction coefficient at the red peak: red absorption peak
Balb/c mice = assay: Cutaneous photosensitivity (ear thickness after xenon light irradiation); type: in vivo; conditions: 0.88 μmol kg^−1, 40 Joules per cm^2 xenon light
Description: Cutaneous photosensitivity was determined in adult female Balb/c mice, held under standard conditions and allowed access to food and water ad libitum. […] Each mouse was weighed immediately before injection and the injected volume adjusted to give the correct dose.
At 24 or 72 hours after photosensitiser injection one ear of each mouse was irradiated with full-spectrum xenon light from a 1 KW clinical photo-irradiator (Model UV-90, Applied Photophysics, London). The light was delivered to the ear using a 7 mm diameter light guide (Serial SU3) placed lightly against the ear. The light dose given was 40 Joules per cm^2, which was achieved by exposing the ear for 63 seconds to 245 mW of light from the light guide having a contact area of 0.384 cm^2. The light guide filtered infra-red and ultra-violet light, so as to minimise heating of the ear and damage resulting from ultra-violet light irradiation.
Animals treated with light at the 24 or 72 hour drug-light intervals were killed at 48 or 24 hours respectively after irradiation of the ears. The oedema of the irradiated and control ears was assessed by measuring ear thickness. The thickness of the ear was measured at three sites on the upper third of the ear using a fixed-force micrometer with a vernier-interpolated resolution of 2 μm and an accuracy of 10 μm (Neill instruments).

[3] = usual clinical dose of 0.15 mg kg^−1; cited from earlier work
[4] = Plasma and tissue photosensitiser concentrations in tumour-bearing mice
Description: Adult female Balb/c mice bearing the syngeneic colo26 tumour implanted subcutaneously were produced using methods previously described (Ansell et al. Lasers in Medical Science 1997, 12, 336-41). Groups of mice of weight 19-22 g were given the photosensitisers at a dose of 0.88 μmol kg^−1 (equivalent to 0.6 mg kg^−1 in the case of m-THPC) by injection into the tail vein. The solutions for injection of each compound were prepared at a concentration of 0.352 μmol ml^−1 so that a typical 20 g mouse would be injected with a volume of 50 μl.
Animals were sacrificed at 6, 24, 72 and 192 hours after injection of each photosensitiser. Immediately after sacrifice, blood was obtained by cardiac puncture, and centrifuged at 13,000×g for three minutes. The resulting supernatant (blood plasma) was aspirated and stored at −70° C. for subsequent analysis. The photosensitiser content of each sample was measured from the fluorescence of an extract obtained using methanol:DMSO (3:5, v:v). A 50 μl portion of each extract was transferred to a disposable fluorescence cuvette and the fluorescence determined using an excitation wavelength of 418 nm and emission wavelength of 650 nm with an eight second response setting. The assay was calibrated using stock solutions of each compound in methanol, further diluted in methanol:water (1:1, v/v) and extracted with methanol:DMSO as described above. […] The measurement protocol was designed to dilute each sample to a sufficient extent to avoid interference by endogenous chromophores (absorbance of samples <<0.1 at the excitation wavelength).
The selectivity for tumour specific tissue distribution was also evaluated in this work. Tissue selectivity was evaluated as the tumour:muscle concentration ratio over the duration of the observation period (4-192 hours post-administration). This ratio provided a direct measure of the normal tissue to tumour tissue differential in concentrations and allows selection of an optimal treatment time for PDT that minimises the potential to cause collateral damage of normal tissues.

[5] = system: syngeneic colo26 tumour implanted subcutaneously; conditions: 4.4 μmol kg^−1; drug-light interval 72 hours; light 652 nm; cited from earlier work
tumour and muscle = conditions: cited from earlier work
[6] = system: syngeneic colo26 tumour implanted subcutaneously; assay: Tumour PDT activity (tumour necrosis) in mouse implanted colorectal tumour model
Description: Information on the tumour PDT activity have been obtained in the aforementioned mouse model bearing the syngeneic colo26 tumour implanted subcutaneously at the top of the left hind leg (approximately 1 cm lateral to the spine). The tumours were used after 12 to 16 days when they had reached an average diameter of 8 to 10 mm. For drug injection and irradiation animals were sedated with Hypnorm diluted in water (1:3).

[7] = 0.88 μmol kg^−1 i.v., 6-192 hours

Molecule	6 hour uptake (millions of molecules per cell) ([1]; 4° C.)	24 hour uptake (millions of molecules per cell) ([1]; 4° C.)	Rate of uptake 6-24 h (thousands of molecules per cell per hour) ([1]; 4° C.)	6 hour uptake (millions of molecules per cell) ([1]; 37° C.)	24 hour uptake (millions of molecules per cell) ([1]; 37° C.)	Rate of uptake 6-24 h (thousands of molecules per cell per hour) ([1]; 37° C.)	Fluorescence in aqueous solution relative to ethanol [2]	Molar extinction coefficient at the red peak [2]	Differences in ear thickness (irradiated-control), Mean (Balb/c mice; 24 h drug-light interval) [μm]	Differences in ear thickness (irradiated-control), Mean (Balb/c mice; 72 h drug-light interval) [μm]	also measured
Oc1cccc(-c2c3nc(c(-c4cccc(O)c4)c4ccc([nH]4)c(-c4cccc(O)c4)c4nc(c(-c5cccc(O)c5)c5ccc2[nH]5)CC4)C=C3)c1 [m-THPC, 7,8-dihydro-5,10,15,20-tetrakis(3-hydroxyphenyl)porphyrin]	0.82 millions of molecules per cell	1.33 millions of molecules per cell	28 thousands of molecules per cel	79.2 millions of molecules per cell	208 millions of molecules per cell	7184 thousands of molecules per cel	severely quenched	~30,000 L mol^−1 cm^−1	41	2	Inhibition of uptake at 4° C., factor ([1]; 4° C. versus 37° C.): over 250; Time of peak uptake by tumour cells ([1]; 37° C.): around 24 hours; Solubility in water (Solubility in water; water): insoluble; Solubility in water (Solubility in water; water / aqueous solvents): insoluble in aqueous solvents; Duration of skin sensitivity [3]: 2-3 weeks
tetrakis (ω-methoxypolyethylene glycol [MW=2000] triazine of 7,8-dihydro-5,10,15,20-tetrakis(3-hydroxyphenyl)porphyrin [SPC 0038B]	0.56 millions of molecules per cell	0.64 millions of molecules per cell	4 thousands of molecules per cel	0.82 millions of molecules per cell	0.86 millions of molecules per cell	2 thousands of molecules per cel	47%	–	25	4	Uptake in the cold compared with 37° C. ([1]; 4° C. versus 37° C.): twice as great in the cold than at 37 °C; Cell photosensitiser content, factor less than that of m-THPC ([1]; after 72 hours incubation, 37° C.): ~100; Excretion from the liver ([4]; mouse, in vivo): more slowly than m-THPC; Biological effect (mm of tumour necrosis) [5]: 3.3 ± 0.7 ^1 mm; Time for which tumour retained maximum sensitivity to light (tumour and muscle; after drug administration, mouse model): at least 15 days; Time of peak concentration in muscle (tumour and muscle; after injection): ≤ 72 h; Muscle photosensitivity (tumour and muscle; three days after administration, mouse model): no longer photosensitive; PDT treatment times with sustained PDT tumour necrosis (tumour and muscle; tumour bioactivity): 4 to 15 days; Fold less potency in comparison to SPC 0172 and m-THPC ([6]; optimal drug-light interval of 72 hours, dose level and degree of tumour necrosis basis): 10-20 fold
tetrakis (6′-(methoxy PEG 2000 carbamate)1′-isocyanate hexamethylene) derivative of 7,8dihydro-5,10,15,20-tetrakis(3-hydroxyphenyl)porphyrin [SPC 0172]	1.08 millions of molecules per cell	1.78 millions of molecules per cell	39 thousands of molecules per cel	1.12 millions of molecules per cell	2.08 millions of molecules per cell	53 thousands of molecules per cel	36%	~22,000 L mol^−1 cm^−1	2	0	Uptake on cooling as share of that at 37° C. ([1]; 4° C. versus 37° C.): about 75%; Cell photosensitiser content, times as much as SPC 0038B ([1]; after 72 hours of incubation, 37° C.): about 5; Liver photosensitiser levels [4, 7]: lower and eliminated more quickly; Plasma concentration-time profile [4, 7]: lower absolute levels and more rapid elimination; Skin photosensitiser concentrations [4, 7]: low throughout the 6-192 hour measurement period; Tumour:muscle concentration ratio ([4]; 72 hours post-administration, 0.88 μmol kg^−1 i.v.): about 7.5; Time of optimal tumour:muscle concentration ratio ([4]; post-administration, 0.88 μmol kg^−1 i.v.): 72 h; PDT activity compared with m-THPC ([6]; Balb/c mice bearing colo26): same PDT activity as m-THPC; Time of maximum photodynamic effect in tumour ([6]; Balb/c mice bearing colo26): 2 days; Damage of surrounding skin and underlying muscle at treated sites ([6]; particularly at the two day drug-light interval): only limited damage of the surrounding skin and underlying muscle; Tumour damage at a range of drug-light intervals ([6]; same dose (1.76 μmol kg^−1), light dose 20 J cm^−2, all drug-light intervals up to 72 hours): Full thickness tumour damage
